Experimental data as given in patent US20240238299A1, “USE OF PYRROLOPYRIMIDINE COMPOUND” (GUANGZHOU JOYO PHARMATECH CO., LTD, priority 2021, published 2024).
pIC50: −log10 of the molar value.

Columns and labels:
[1] = tested on: IL-2-induced pSTAT5 in hPBMC; assay: IL-2-induced pSTAT5 in hPBMC (flow cytometry, CD4 positive cells); format: cell-based; details: Homo sapiens, 4 ng/mL IL-2, CD4 positive cells
Description: • 1) Preparation of culture medium: 1640 medium+10% fetal bovine serum+1% penicillin/streptomycin+1% non-essential amino acids (all percentages were v/v) • 2) Cells were thawed in a 37° C. water bath and then centrifuged. The cell concentration was adjusted to 5×10^5 cells/mL using the prepared culture medium. • 3) Cell suspension was seeded into a 96-well round-bottom plate at 200 μL/well and incubated at 37° C. for 90 minutes. • 4) Drugs were added, followed by a 37° C. incubation for 30 minutes. • 5) Cells were then stimulated by adding 10 ng/mL of IL-6 or 4 ng/mL of IL-2, followed by a 37° C. incubation for 15 minutes.
• 1) After completing the stimulation, cells were centrifuged and washed once with staining buffer (DPBS+2% bovine serum albumin). Antibodies were then added for a 30-minute staining process at 4° C. […]
• 1) Response %=[(MFI value of drug-treated well−mean MFI value of control well)/(mean MFI value of DMSO well−mean MFI value of control well)]*100% was calculated. • 2) The calculated Response % values were input into GraphPad Prism 8 software. […]

[2] = tested on: NO secretion by BV-2 cell line; assay: NO secretion by LPS/IFN-γ-activated BV-2 cells (Griess Reagent System); format: cell-based, Mouse
Description: (§1) Step 1: BV-2 cells in the exponential growth phase were collected, and viable cells were counted using a Vi-Cell XR cell counter. The cell suspension was adjusted to an appropriate concentration with the culture medium. 160 μL of cell suspension was added to each well of a 96-well cell culture plate, resulting in a final cell concentration of 12,000 cells per well. The culture plate was incubated for 24 hours in a 37° C., 5% CO2 incubator.
(§2) Step 2: A 10 mM DMSO compound stock solution was diluted at a ratio of 1:4 using DMSO to prepare a series of 1000× test compound solutions. These 1000× test compound solutions were further diluted at a ratio of 1:100 using cell culture medium to prepare a series of 10× test compound solutions. Finally, the 96-well plate that had been plated with cells the day before was taken out. According to the experimental well plate loading design, 20 μL of the corresponding 10× solution was added to each well, with three duplicate wells for each drug concentration. The final concentrations of the test compounds used in the experiment (i.e., 1× solutions) have a range of 10, 2.5, 0.625, 0.156, 0.0391, 0.0098, and 0.0024 μM. The final DMSO concentration in each well was 0.1%.
(§3) After the compound was added, the 96-well plate was incubated for half an hour in the 37° C., 5% CO2 incubator.
(§4) After the pre-incubation was completed, 20 μL of culture medium containing 100 ng/mL LPS and 100 ng/mL IFN-γ (final concentrations of 10 ng/mL LPS and 10 ng/mL IFN-7) was added to each well to induce the activation of BV-2 cells. The culture plate was then incubated for 24 hours in the 37° C., 5% CO2 incubator.
(§5) Step 3: After 24 hours of treatment with the compound, the culture plate was centrifuged at 1200 rpm for 5 minutes. The supernatant was pipetted into another plate, which was sealed with tinfoil and stored at −20° C. for future ELISA and Griess reagent system assays. The cell culture plate from which the supernatant had been removed was immediately used for cell proliferation assays using the CellTiter-Glo (CTG) method.
Step 5 (NO and CCL5 detection): The CCL5 levels in the supernatant were detected using an ELISA kit (Mouse CCL5/RANTES DuoSet ELISA; R&D; DY478-05), following the instructions provided with the kit. The nitric oxide (NO) levels in the supernatant were detected using the Griess Reagent System (Promega; G2930), following the instructions provided with the kit.
Step 1: Firstly, the optical density values obtained from ELISA and Griess tests were used to plot a standard curve and calculate the absolute concentrations of each sample. The absolute concentration was then calibrated using the CTG fluorescence value corresponding to each sample to obtain the calibrated concentration. The formula for calculating the calibrated concentration was: calibrated concentration=absolute concentration/CTG fluorescence value of the same sample.
Step 2: Based on the calibrated concentration of each sample, the relative percentage of CCL5 or NO secretion (i.e., CCL5 production (%) or NO production (%)) at each test concentration relative to the blank (DMSO) group was calculated. The formula for calculating the relative percentage was: relative percentage %=(calibrated concentration of the test concentration group)/(calibrated concentration of the blank group).
Step 3: Finally, the relative percentage of CCL5 secretion or the relative percentage of NO secretion was plotted against the logarithm of the compound concentration. […]

[3] = tested on: BV-2 cells; assay: CTG cell proliferation assay, LPS/IFN-γ-activated BV-2 cells; format: cell-based, Mouse
Description: as §1, §2, §3, §4, §5
Step 4: In the cell culture plate from which the supernatant had been removed, 100 μL of PBS was added to each well. According to the instructions of the CellTiter-Glo (CTG) kit, 50 μL of pre-melted and room-temperature balanced CTG solution was added to each well. The plate was then mixed for 2 minutes using a microplate shaker. After letting it stand at room temperature for 10 minutes, the fluorescence signal value was measured using an Envision 2104 plate reader.
Step 1: Using the CTG fluorescence signal values, the percentage of surviving cells (surviving cells %) at each test concentration relative to the blank (DMSO) group was calculated. The formula was: surviving cells %=fluorescence value of the test concentration group/fluorescence value of the blank group.
Step 2: the percentage of surviving cells was plotted against the logarithm of the compound concentration. Nonlinear regression was used to fit the curve, and the formula “log(inhibitor) vs. response—Variable slope” in the software GraphPad Prism 5 was employed to calculate the IC50 value.
Step 3: The formula for calculating the inhibition rate was: inh. (%)={fluorescence value of the blank group−fluorescence value of the test concentration group}/fluorescence value of the blank (DMSO) group.

With `CN(c1ncnc2[nH]ccc12)[C@@H]1CCc2cc(C#N)nn2C1` [Compound I] the pIC50 [1] was 7.44, the “Maximum inhibition rate on NO secretion by BV-2” value ([2]; 24 h co-incubation, up to 10 μM) was 100% and the pIC50 ([2]; Mus musculus, BV-2, 24 h co-incubation, read-out: IC50 on NO secretion by BV-2) was 6.31. The “inhibitory effect on cell proliferation” value ([3]; 24 h co-incubation with BV-2, highest test concentration 10 μM) was “no inhibitory effect on cell proliferation”, the “maximum rate of increase in cell numbers compared to blank (DMSO) well” value ([3]; BV-2, 24 h, concentration greater than 0.1 μM) was 46.39% and the inhibition at up to 10 µM ([3]; Mus musculus, BV-2, 24 h co-incubation, LPS/IFN-γ, highest concentration 10 μM, read-out: Maximum inhibition rate on BV-2 cell proliferation) was -46.4%.
